# Assay results published in patent publication US20110021621A1, “Drug for treating circulatory insufficiency” (ACTIVUS PHARMA CO., LTD., priority 2005, published 2011).
# Read-outs that look alike come from different tables or passages of the source.
# Key:
# [1] = tested on: circulatory insufficiency model of rats induced by injection of lauric-acid into their femoral artery; test: Circulatory insufficiency model induced by lauric-acid in rats (lesion index); assay type: in vivo, rat; design: key: summed toe lesion grades, +5 if heel reached; max 25 points; details: male Wistar rats, average, max 25 points; for Lesion Index after 10 days: 30 mg/kg multiple oral dosing (1 h prior to and 3 h after lauric-acid, then twice daily for 9 days), 10 days after lauric-acid injection; for Lesion Index after 3 days: 30 mg/kg multiple oral dosing (1 h prior to and 3 h after lauric-acid, then twice daily), 3 days after lauric-acid injection
# Experimental: We performed this test in order to evaluate the pharmacological effect of the compounds of the present invention using a circulatory insufficiency model of rats induced by injection of lauric-acid into their femoral artery.
# 13-week-old male Wistar rats (body weight is 280 to 316 g), 8 rats per one group, were used. The rats were held in a supine position under anesthesia due to administration of 40 mg/kg of sodium pentobarbital by intraperitoneal injection. Then, the right femoral area was incised, thereby injecting 0.15 mL of 10 mg/mL lauric-acid solution into the femoral artery in order to induce lower limb gangrene caused by the peripheral vascular disorder. A few drops of instant adhesive (Aron-alpha; registered trademark) were used to stop bleeding, followed by topical application of antibiotics (potassium penicillin G solution) to prevent infection, and the incision site was then sutured.
# The suspension was administered, by means of multiple oral dosing, 1 hour prior to and 3 hours after injection of lauric-acid and twice daily (at 10:00 and 17:00) for the following 9 days, at the dose of 30 mg/kg for each compound. […] The suspension was administered orally 3 hours prior to injection of lauric-acid at the dose of 300 mg/kg.
# The extent of lesions was evaluated 3 days and 10 days after injection of lauric acid by the following criteria:
# The lesion of each toe was graded and the total points of 5 toes were use as a lesion index, wherein 5 points were further added when the lesion reached the heel (i.e. the maximum lesion index was 25 points).
# The shown number refers to the average value of the lesion index obtained from the evaluation.
# [2] = Stability test in acidic or basic solution (half-life by liquid chromatography); assay type: physicochemical; details: time to 50% residual rate
# Experimental: The test compounds were dissolved in an acidic solution (phosphate buffer (pH3.4)) and in a basic solution (phosphate buffer (pH7.3)) at the concentration of 1 mmoL/L. Immediately after they were dissolved, each solution was analyzed with liquid chromatography using an acidic solution (phosphate buffer (pH3.4)) or basic solution (phosphate buffer (pH7.3)) as an eluent. The peak area of the test compounds was measured as the initial value. Furthermore, a time-course analysis with liquid chromatograpy was conducted to measure the peak area at each time point. The solution containing the test compound was kept in an incubator at 37° C. Based on the measured peak area of the test compounds, the percentage (%) of the peak area at each measurement time point was calculated, taking the peak area of the initial value as 100(%). The half-life (the time to show a 50% residual rate of the test compounds) of the test compounds was further calculated, and its stability was evaluated based on the half-life.
Structure (SMILES),Lesion Index after 10 days [1],Lesion Index after 3 days [1],"half-life at 1 mmoL/L ([2]; phosphate buffer pH 3.4, 37° C., read-out: Half-life, pH 3.4 solution (converted))","half-life at 1 mmoL/L ([2]; phosphate buffer pH 7.3, 37° C., read-out: Half-life, pH 7.3 solution (converted))"
CCCCOc1c(O)c2c(OCCO)cccc2oc1=O [Compound 237],7.9,3.4,–,–
CC(C)=CCCC(C)=CCOc1ccc2c(O)c(OCC=C(C)CCC=C(C)C)c(=O)oc2c1 [Compound 174],7.5,2.7,–,–
CC(C)CCCOc1c(O)c2ccc(OCCO)cc2oc1=O [Compound 449],7.3,2.8,–,–
CCCCOc1c(O)c2c(OCCCO)cccc2oc1=O [Compound 261],7.6,3.7,–,–
CC(C)Oc1c(O)c2ccc(O)cc2oc1=O [Compound 120],8.0,2.3,–,–
CCCCCCCCOc1c(O)c2cccc(OCCCC(=O)O)c2oc1=O [Compound 633],7.4,2.6,–,–
CCC(CC)Oc1c(O)c2ccc(O)cc2oc1=O [Compound 124],8.3,3.0,–,–
CCCCCCCCOc1c(O)c2c(OCCCCC(=O)O)cccc2oc1=O [Compound 333],7.4,3.0,–,–
CCCCC(CC)Oc1c(O)c2ccc(OCCCCO)cc2oc1=O (centres unmarked) [Compound 477],7.7,2.9,–,–
CCCCCCCCOc1c(O)c2ccc(OCCCO)cc2oc1=O [Compound 468],7.8,2.8,–,–
CCCCCCOc1c(O)c2cc(OCCCC)ccc2oc1=O [Compound 98],8.4,3.0,–,–
CCCCCCCCCCOc1c(O)c2ccc(OCC(O)CO)cc2oc1=O (centres unmarked) [Compound 485],7.9,2.8,–,–
"O=c1oc2ccc(-c3ccccc3)cc2c(O)c1O [C, reference compound]",–,–,35 h,65 h
CC(C)CCCOc1c(O)c2cccc(OCCO)c2oc1=O [Compound 551],7.8,2.5,–,–
CCCCCCOc1c(O)c2cccc(OCCO)c2oc1=O [Compound 547],7.2,3.0,–,–
CCOc1c(O)c2ccc(O)cc2oc1=O [Compound 118],8.3,2.4,–,–
CCCCCCOc1c(O)c2cc(OCCC(O)CO)ccc2oc1=O (centres unmarked) [Compound 388],7.5,2.9,–,–

Structure (SMILES),Lesion Index after 10 days [1],Lesion Index after 3 days [1],"half-life at 1 mmoL/L ([2]; phosphate buffer pH 3.4, 37° C., read-out: Half-life, pH 3.4 solution (converted))","half-life at 1 mmoL/L ([2]; phosphate buffer pH 7.3, 37° C., read-out: Half-life, pH 7.3 solution (converted))"
CCCCCCCCOc1c(O)c2c(OCC(O)CO)cccc2oc1=O (centres unmarked) [Compound 280],7.9,2.7,–,–
CCCCOc1c(O)c2c(OCC(=O)O)cccc2oc1=O [Compound 295],7.2,3.0,–,–
CCCCC(CC)Oc1c(O)c2c(OCCO)cccc2oc1=O (centres unmarked) [Compound 244],7.4,3.5,–,–
CCCCCCCCOc1c(O)c2ccc(O)cc2oc1=O [Compound 131],7.5,3.0,–,–
CCCCCCC=COc1c(O)c2cccc(O)c2oc1=O [Compound 196],7.4,3.3,–,–
CCCOc1c(O)c2ccc(O)cc2oc1=O [Compound 119],7.1,2.5,–,–
CCCCOc1c(O)c2cccc(O)c2oc1=O [Compound 179],8.4,3.6,–,–
CCCCCOc1c(O)c2ccc(O)cc2oc1=O [Compound 123],7.9,2.6,–,–
CCCCCCOc1c(O)c2cc(O)ccc2oc1=O [Compound 67],7.5,2.8,–,–
CCCCCCOc1c(O)c2c(O)cccc2oc1=O [Compound 9],7.8,2.5,–,–
CCCCCCOc1c(O)c2cccc(OCCCC)c2oc1=O [Compound 214],7.9,3.5,–,–
CC(C)CCCOc1c(O)c2cc(OCCO)ccc2oc1=O [Compound 347],8.1,2.3,–,–
CCCCCCCCOc1c(O)c2ccc(OCCC(O)CO)cc2oc1=O (centres unmarked) [Compound 491],7.4,2.9,–,–
CCCCC(CC)Oc1c(O)c2ccc(OCC(=O)O)cc2oc1=O (centres unmarked) [Compound 506],7.3,2.7,–,–
CCCCOc1c(O)c2ccc(O)cc2oc1=O [Compound 121],7.3,2.8,–,–
CC(C)=CCCC(C)=CCOc1c(O)c2ccc(O)cc2oc1=O [Compound 141],7.8,2.6,–,–
CCCCCCCCOc1c(O)c2cc(OCCCC(=O)O)ccc2oc1=O [Compound 429],7.9,2.2,–,–
